Laboratory results from patent US6620813B1, “Hydroxamate derivatives of non-steroidal anti-inflammatory drugs” (Medinox, Inc., priority 2002, dated 2003).
“Also recorded” adds a separate entry of the source.

Experiments:
Male Sprague-Dawley rats [1] = assay: Gastropathy model: total gastric lesions after a single oral dose; format: in vivo, rat
Experimental: Rats were fasted for 18 hours prior to the study. […] Drugs were administered orally as a single dose in the morning and water removed. Two and one-half hours after dosing, rats were injected with 1 ml of 10 mg/ml Evans Blue solution and sacrificed 30 minutes later. Stomachs were removed, placed in weigh boats containing cold PBS, and re-coded with letters to blind the observer. Stomachs were then opened along the greater curvature, any contents removed and then placed flat with the lumen facing up to score blue-stained lesions for gastric toxicity according to the following criteria: First, the number of small rounded lesions were counted followed by measurement of total length of linear lesions of greater than or equal to 2 mm. The two numbers obtained (round lesion number and linear length) were added together to give a total gastropathy score expressed as Total Gastric Lesions.

Male Lewis rats = assay: Adjuvant-induced arthritis: paw volume; format: in vivo, rat; details: oral daily on days 8-15, day 15, equimolar doses, FIG. 3
Male Sprague-Dawley rats [2] = assay: Enteropathy model: intestinal erosions and ulcers after oral dosing; details: diclofenac vs equimolar compound 54, vehicle PEG, FIG. 1
Experimental: Enteropathy: Male Sprague-Dawley rats (150-174 g) were obtained from Harlan. Animals were allowed to acclimatize to the facility for a minimum of 3 days and provided with food and water ad libitium. […] Drugs were administered orally either as a single dose (late morning) or twice daily between 8:00-10:00 and 4:00-5:00 beginning with a morning dose for a total of three days. Groups contained 6-8 animals per treatment. On the fourth day each rat was injected intravenously with 1 ml of a 10 mg/ml solution of Evan's Blue to stain the damaged blood vessels in intestinal erosions and ulcers. Animals were sacrificed 10 to 20 minutes after administration of Evan's Blue. The small intestine was then removed from each rat and placed in a large weigh boat in cold PBS, stored briefly in a refrigerator until boats were re-coded to blind the observer. Each intestinal segment was then opened longitudinally and, using a fiber optic light, scored for erosions and ulceration according to the following criteria:
After Evan's Blue injection, intestinal lesions are seen as shallow lesions that are moderately stained around the edge, but with little to no staining in the middle. The depth of an erosion is sometimes only detectable when the edge of the tissue is lifted to reflect light at a different angle. Erosions are usually small and round or oval, but are sometimes as much as 1-2 mm wide, and as long as 1-2 cm, running along the area of mesenteric attachment. When erosions are elongated, the length is measured in mm and divided by 2; otherwise, the erosions are merely counted individually. Note that some areas of intestinal tissue stain blue, but are not erosions. These tend to be near the mesenteric membrane attachment sites and may represent areas of increased permeability that have not progressed to the extent that cell loss has occurred.
Ulcers: An ulcer is a deep lesion penetrating the muscularis mucosa. It is usually thickened and inflamed. After Evan's Blue injection, ulcers present several different types of appearance. […] All ulcers are quantified by measuring their long dimensions in mm.

Row | SMILES | gastric lesion formation compared with Diclofenac (Male Sprague-Dawley rats [1]; rat model of gastropathy, equivalent doses) | less gastric lesion (total length) than an equimolar dose of diclofenac (Male Sprague-Dawley rats [1]; rats, oral single dose, relative to equimolar diclofenac, FIG. 2) [%] | inhibition of paw volume increase in the uninjected feet (anti-inflammatory activity) (Male Lewis rats) | total length of intestinal ulcers (ulcerogenic effect / ulcer formation) (Male Sprague-Dawley rats [2])
1 | Cc1csc(=S)n1OC(=O)Cc1ccccc1Nc1c(Cl)cccc1Cl [Compound 54] | significantly less gastric lesion formation | 73 | equivalent efficacy to equimolar doses of Diclofenac | significantly less; also recorded: no ulcerogenic effect
2 | O=C(O)Cc1ccccc1Nc1c(Cl)cccc1Cl [Diclofenac, diclofenac, reference compound] | – | – | – | substantial ulceration
